“Also recorded” adds a separate entry of the source.
Key:
Format in all cases: cell-based
[1] = tested on: KA-insulted primary cultured rat cortical cells; assay: Neuroprotection against KA-induced toxicity, cell viability by MTT assay; conditions: for Viability (%) KA-insulted: compound 1 µM for 1 hr, then 50 µM KA, 24 hr
Method: (§1) Primary cultures of mixed cortical cells containing both neuron and glia were prepared from fetal rats as described previously (Kim Y C, Kim S R, Markelonis G J and Oh T H (1998) Ginsenosides Rb1 and Rg3 protect cultured rat cortical cells from glutamate-induced neurodegeneration. J. Neurosci. Res. 53: 426-432).
(§2) The cortical cells were plated onto collagen-coated dishes at a density of 1×10^6 cells/ml. The cultured cells were grown in DMEM supplemented with 10% heat-inactivated fetal calf serum, 1 mM sodium pyruvate, 100 IU/ml pecicillin and 100 μg/ml streptomycin at 37° C. in a humidified atmosphere of 95% air/5% CO2. cultures were allowed to mature for 2 weeks before being used for experiments.
(§3) To culture broth of the cortical cells during being cultured, MTT(5 mg/ml) was added by 10% of the culture broth. The broth was cultured for more 3 hours. The formed formazan was dissolved by DMSO and was assayed absorption at 540 nm ((Mosmann T (1983) Rapid colorimetric assay for cellular growth and survival: Application to proliferation and cytotoxicity assays. J. Immuno. Methods 65: 55-61)
(§4) Glutamate receiptor is divided into NMDA receiptor which is activated by NMDA and non-NMDA receiptor which is activated by alpha-amino-3-hydroxy-5-methyl-4-isoxazole and kainic acid (KA). To first cultured cortical cells, the above compounds were each treated. The neuro-protective activities of the compounds were measured, after toxicities were induced by NMDA, the NMDA receiptor agonist, or KA, the non-NMDA receiptor agonist.
(§5) Rat cortical cultures were treated with compounds at the concentration of 1 M for 1 hr. The cultures were then exposed to 50 µM NMDA or 50 µM KA and were maintained for an additional 24 hr. […]. Cell viability was measured by the MTT assay. Optical density of control, NMDA- and KA treated were 1.20±0.10, 0.77±0.05 and 0.85±0.08, respectively. Viability was calculated as the same as Table 1. Values given represent the mean SD (n=3).

[2] = tested on: NMDA-insulted primary cultured rat cortical cells; assay: Neuroprotection against NMDA-induced toxicity, cell viability by MTT assay; conditions: for Viability (%) NMDA-insulted: compound 1 µM for 1 hr, then 50 µM NMDA, 24 hr
Method: as §1, §2, §3, §4, §5

[3] = tested on: glutamate-damaged primary cultured rat cortical cells; assay: Neuroprotection against glutamate-induced neurotoxicity, cell viability by MTT assay; parameters: Viability (%) Pre-treatment / Viability (%) Post-treatment: unit of the concentration uncertain; conditions: for Viability: 1 hr before 100 M glutamate, then 24 hr, control 100, glutamate-treated 0; for Viability (%) Pre-treatment: compound 1 µM for 1 hr before 100 µM glutamate (15 min), then 24 hr in DMEM in the absence of compound; for Viability (%) Post-treatment: glutamate 15 min, washed, 24 hr in the presence of compound 1 µM; for neuroprotective activity, post-treatment (in words): post-treatment with lignan after glutamate; for neuroprotective activity, pre-treatment (in words): pre-treatment with lignan before glutamate; for neuroprotective activity against glutamate-induced neurotoxicity (in words): primary cultures of rat cortical cells, L-glutamate
Method: as §1, §2
The lignan compounds to be investigated for having neuroprotective activity or not were dissolved in DMSO(within final culture concentration, 0.1%) and diluted with distilled water and by passing the solution through Milliporemembrane (0.22 μm, Millex-GV, USA) to make sterile state. The solution was cultured, by differentiating the concentration and dosed to neuron cells.
Cortical cells directly isolated from […] fetal were cultured for 14 days. The samples to be tested were treated at different concentrations to cultured cells. After one hour, neurotoxicity was induced by treating 100 μM of glutamate. After 24 hours, the survival cell rate were measured by MTT assay to determine neuroprotective activity of the samples.
as §3
Deoxychizandrin, gomisin N, schizandrin and wuweizisu C, the important dibenzocyclooctane lignans of Schizandra fruit were evaluated by assessing the viability of cultured cortical neurons after treatment with the neurotoxicant, glutamate. […] After cortical cells were cultured for 14 days, test compounds were dosed at different concentrations and after 1 hour neurotoxicity was induced by 100 μM glutamate. After culturing for 24 hours, the neuroprotective activity was measured. The neuroprotective activity of the compounds were measured by MTT assay for assaying the activity of succinate dehydrogenase. […] And the content of formazan is decreased, too. By using this phenomena, cell survival rate can be measured.
We investigated the protective mechanisms of deoxyschizandrin, gomisin N and wuweizisu C in an attempt to determine at which stage these lignans protected neurons from glutamate-induced toxicity. Cultures were pretreated with the lignans for […] exposure to glutamate(pre-treatment). In addition, some cultures were exposed to glutamate in DMEM for 24 hours in the […] of lignans (post-treatment).
Rat Cortical cultures were treated with compounds for 1 hr before exposure to 100 M glutamate and then maintained for 24 hr. Cell viability was measured by the MTT assay. Optical density (OD) of the control and glutamate-treated were 1.18±0.09 and 0.75±0.07, respectively. Viability was calculated as 100×(OD of glutamate+compound-treated−OD of glutamate-treated)/(OD of control−OD of glutamate-treated). Values given represent the mean SD (n=3).
Rat cortical cultures were treated with compounds at the concentration of 1 M for 1 hr before exposure to 100 M glutamate (15 min) and then maintained in DMEM for 24 hr in the absence of compound (Pre-treatment). Some cortical cultures were exposed to glutamate for 15 min, washed and maintained in DMEN for 24 hr in the presence of compund (Posttreatment). Cell viability was measured by the MTT assay. Optical density (OD) of the control and glutamate-treated were 1.18±0.09 and 0.75±0.07, respectively. Viability was calculated as the same as Table 1. Values given represent the mean SD (n=3). […]

[4] = tested on: nitric oxide (NO) content in glutamate-damaged primary cultured rat cortical cells; assay: Measurement of nitrite (Griess reagent), NO content; conditions: 24 hr; for Nitrate: compound 1 µM for 1 hr before 100 µM glutamate, control 90.2, glutamate-treated 141.8; for Protection (NO content): compound 1 M (1 μM) for 1 hr before 100 M glutamate
Method: The content of nitrite isolated into culture broth from first cultured cortical cells was assayed by using Griess reagent by Dawson's method (Dawson V L, Brahbhatt H P, Mong J A and Dawson T M (1994) Expression of inducible nitric oxide synthase causes delayed neurotoxicity in primary neuronal-glial cortical cultures. Neuropharmacology 33: 1425-1430).
In case glutamate is treated to first cultured cortical cells of mice, formation of NO is increased. […] When schizandrin is treated at the 1 μM concentration, it decreased NO content increased by glutamate. […] When deoxyschizandrin, gomisin N and wuweizisu C are treated at 1 uM concentration to first cultured cortical cells toxicity-induced by glutamate, those maintained about 50% of normal state activity of GSH-px and glutathione decreased by glutamate and have protective activity on the activity of antioxidant enzymes.
Rat cortical cultures were treated with compounds at the concentration of 1 M for 1 hr before exposure to 100 M glutamate and then maintained for 24 hr. Values given represent the mean SD (n=3).

| SMILES | Viability (%) KA-insulted [1] [%] | neuroprotective activity against toxicity induced by NMDA (in words) [2] | Viability (%) NMDA-insulted [2] [%] | Viability ([3]; compound 0.1 μM) [%] | Viability (%) Pre-treatment [3] [%] | Viability ([3]; compound 1.0 μM, 1 µM) [%] | Viability ([3]; compound 1.0 μM, listed as gomisin N, 1 µM) [%] | Viability ([3]; compound 5.0 μM) [%] | Viability (%) Post-treatment [3] [%] | neuroprotective activity, post-treatment (in words) [3] | neuroprotective activity, pre-treatment (in words) [3] | neuroprotective activity against glutamate-induced neurotoxicity (in words) [3] | Nitrate [4] [nM] | Protection (NO content) [4] [%] | neuroprotective activity against toxicity induced by KA (in words) [1] | Viability ([3]; compound 1.0 μM, listed as deoxyschzandrin, 1 µM) [%] | Viability ([3]; compound 1.0 μM, listed as wuwiewisu C, 1 µM) [%] |
| --- | --- | --- | --- | --- | --- | --- | --- | --- | --- | --- | --- | --- | --- | --- | --- | --- | --- |
| COc1cc2c(c(OC)c1OC)-c1c(cc3c(c1OC)OCO3)C[C@H](C)[C@H](C)C2 [Gomisin N, gomisin N] | 25.5 ± 4.5 | relatively better neuroprotective activity | 45.5 ± 6.8 | 25.2 ± 4.4 | 45.5 ± 9.8 | 51.3 ± 8.3 | 51.3 | 49.2 ± 9.5 | 39.6 ± 6.2 | maintained its activity | maintained its activity | exhibited neuroprotective activities; also recorded: significantly have protective activity | 111.4 ± 3.3 | 60.2 | – | – | – |
| COc1cc2c(c(OC)c1OC)-c1c(cc(OC)c(OC)c1OC)C[C@H](C)[C@H](C)C2 [Deoxyschizandrin, deoxyschizandrin] | 38.2 ± 4.2 | – | 11.0 ± 3.5 | 11.6 ± 5.1 | 20.1 ± 3.1 | 46.2 ± 6.3 | – | 45.6 ± 3.1 | 45.9 ± 5.5 | significant neuroprotective activity | not pre-treated | exhibited neuroprotective activities; also recorded: significantly have protective activity | 121.9 ± 3.1 | 40.2 | selectively neuroprotective activity | 46.2 | – |
| COc1c2c(cc3c1-c1c(cc4c(c1OC)OCO4)C[C@H](C)[C@H](C)C3)OCO2 [Wuweizisu C, wuweizisu C] | 15.0 ± 3.9 | has neuroprotective activity | 52.1 ± 7.1 | 30.2 ± 6.3 | 59.6 ± 5.1 | 63.9 ± 5.9 | – | 60.9 ± 9.6 | 19.2 ± 7.8 | not post-treatment | neuroprotective | exhibited neuroprotective activities; also recorded: significantly have protective activity | 107.6 ± 2.9 | 65.8 | – | – | 63.9 |

From US6653344B2, “Pharmaceutical preparations containing a dibenzocyclooctane lignan derivative for treatment of neurodegenerative disease” (Elcom Bio Technology Co., Ltd., priority 2000, dated 2003)
